In PubChem BioAssay AID2060599 (Molecular Pharmacology Branch, DTP, NCI, 2025):
Blank lines part the entries; values can stand above or below the compound they belong to.

System: 817829-284-R-J1-PDC complex spheroids, viability
Assay: Anticancer human tumor 817829-284-R-J1-PDC patient-derived colon adenocarcinoma cell line growth inhibition [CLK]
Details: for IC50: curve of first compound; for viability, T/C: stronger effect = lower value
Procedure, shortened: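 Patient-derived tumor cells grown as complex spheroids with HUVEC endothelial cells and mesenchymal stem cells, treated with drug combinations. Concentrations descend in half-log steps from near clinical Cmax, or from 10 microM if Cmax unknown.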

[1] = second compound 0.0316 µM, first compound 0.00316 µM
[2] = second compound 0.0316 µM, first compound 0.01 µM
[3] = second compound 0.0316 µM, first compound 0.0316 µM
[4] = second compound 0.0316 µM, first compound 0.1 µM
[5] = second compound 0.1 µM, first compound 0.00316 µM
[6] = second compound 0.1 µM, first compound 0.01 µM
[7] = second compound 0.1 µM, first compound 0.0316 µM
[8] = second compound 0.1 µM, first compound 0.1 µM
[9] = second compound 0.316 µM, first compound 0.00316 µM
[10] = second compound 0.316 µM, first compound 0.01 µM
[11] = second compound 0.316 µM, first compound 0.0316 µM
[12] = second compound 0.316 µM, first compound 0.1 µM
[13] = second compound 1 µM, first compound 0.00316 µM
[14] = second compound 1 µM, first compound 0.01 µM
[15] = second compound 1 µM, first compound 0.0316 µM
[16] = second compound 1 µM, first compound 0.1 µM
[17] = second compound 3.16 µM, first compound 0.00316 µM
[18] = second compound 3.16 µM, first compound 0.01 µM
[19] = second compound 3.16 µM, first compound 0.0316 µM
[20] = second compound 3.16 µM, first compound 0.1 µM
[21] = second compound 10 µM, first compound 0.00316 µM
[22] = second compound 10 µM, first compound 0.01 µM
[23] = second compound 10 µM, first compound 0.0316 µM
[24] = second compound 10 µM, first compound 0.1 µM
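Also: spheroids exposed to the agents for seven days before readout.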

IC50 (second compound 0.0316 µM): < 3.16 nM
IC50 (second compound 0.1 µM): < 3.16 nM
IC50 (second compound 0.316 µM): < 3.16 nM
IC50 (second compound 1 µM): < 3.16 nM
IC50 (second compound 3.16 µM): < 3.16 nM
IC50 (second compound 10 µM): < 3.16 nM
Compound: CCc1c2c(nc3ccc(O)cc13)-c1cc3c(c(=O)n1C2)COC(=O)[C@]3(O)CC + CNC(=O)c1ccc(Nc2nc(OC3CCCC3)c3c(-c4ccc5nc(C)oc5c4)c[nH]c3n2)c(OC)c1
viability, T/C [1]: 18.9%
viability, T/C [2]: 16.6%
viability, T/C [3]: 13.2%
viability, T/C [4]: 9.4%
viability, T/C (second compound 0.0316 µM, first compound 0.316 µM): 6.53%
viability, T/C (second compound 0.0316 µM, first compound 1 µM): 4.13%
viability, T/C [5]: 21.3%
viability, T/C [6]: 17.2%
viability, T/C [7]: 13.2%
viability, T/C [8]: 9.71%
viability, T/C (second compound 0.1 µM, first compound 0.316 µM): 7.28%
viability, T/C (second compound 0.1 µM, first compound 1 µM): 4.24%
viability, T/C [9]: 17.3%
viability, T/C [10]: 17%
viability, T/C [11]: 13%
viability, T/C [12]: 7.86%
viability, T/C (second compound 0.316 µM, first compound 0.316 µM): 5.8%
viability, T/C (second compound 0.316 µM, first compound 1 µM): 3.35%
viability, T/C [13]: 15.2%
viability, T/C [14]: 12.4%
viability, T/C [15]: 7.9%
viability, T/C [16]: 5.92%
viability, T/C (second compound 1 µM, first compound 0.316 µM): 4.02%
viability, T/C (second compound 1 µM, first compound 1 µM): 2.78%
viability, T/C [17]: 13.2%
viability, T/C [18]: 9.13%
viability, T/C [19]: 6.71%
viability, T/C [20]: 6.34%
viability, T/C (second compound 3.16 µM, first compound 0.316 µM): 4.45%
viability, T/C (second compound 3.16 µM, first compound 1 µM): 2.73%
viability, T/C [21]: 11.9%
viability, T/C [22]: 8.01%
viability, T/C [23]: 7.69%
viability, T/C [24]: 4.85%
viability, T/C (second compound 10 µM, first compound 0.316 µM): 4.44%
viability, T/C (second compound 10 µM, first compound 1 µM): 2.57%

IC50 (second compound 0.0316 µM): < 0.316 nM
IC50 (second compound 0.1 µM): < 0.316 nM
IC50 (second compound 0.316 µM): < 0.316 nM
IC50 (second compound 1 µM): < 0.316 nM
IC50 (second compound 3.16 µM): < 0.316 nM
IC50 (second compound 10 µM): < 0.316 nM
Compound: Cn1ncnc1[C@H]1c2n[nH]c(=O)c3cc(F)cc(c23)N[C@@H]1c1ccc(F)cc1 + CNC(=O)c1ccc(Nc2nc(OC3CCCC3)c3c(-c4ccc5nc(C)oc5c4)c[nH]c3n2)c(OC)c1
viability, T/C (second compound 0.0316 µM, first compound 0.000316 µM): 26.6%
viability, T/C (second compound 0.0316 µM, first compound 0.001 µM): 36.8%
viability, T/C [1]: 27.3%
viability, T/C [2]: 31.1%
viability, T/C [3]: 25.3%
viability, T/C [4]: 23.4%
viability, T/C (second compound 0.1 µM, first compound 0.000316 µM): 20.5%
viability, T/C (second compound 0.1 µM, first compound 0.001 µM): 21.1%
viability, T/C [5]: 24.7%
viability, T/C [6]: 23.5%
viability, T/C [7]: 22.3%
viability, T/C [8]: 18.2%
viability, T/C (second compound 0.316 µM, first compound 0.000316 µM): 24.1%
viability, T/C (second compound 0.316 µM, first compound 0.001 µM): 17.5%
viability, T/C [9]: 20.2%
viability, T/C [10]: 21.6%
viability, T/C [11]: 18.6%
viability, T/C [12]: 15.3%
viability, T/C (second compound 1 µM, first compound 0.000316 µM): 18.1%
viability, T/C (second compound 1 µM, first compound 0.001 µM): 20.1%
viability, T/C [13]: 14.9%
viability, T/C [14]: 17.3%
viability, T/C [15]: 22%
viability, T/C [16]: 12.1%
viability, T/C (second compound 3.16 µM, first compound 0.000316 µM): 24.5%
viability, T/C (second compound 3.16 µM, first compound 0.001 µM): 19.9%
viability, T/C [17]: 27.6%
viability, T/C [18]: 14.3%
viability, T/C [19]: 16.7%
viability, T/C [20]: 15.8%
viability, T/C (second compound 10 µM, first compound 0.000316 µM): 16.8%
viability, T/C (second compound 10 µM, first compound 0.001 µM): 13.4%
viability, T/C [21]: 21.9%
viability, T/C [22]: 18.4%
viability, T/C [23]: 16%
viability, T/C [24]: 18.1%
